Reference: patent publication US12054498B2, “Heteroaromatic macrocyclic ether chemotherapeutic agents” (Nuvalent, Inc., priority 2020, dated 2024)

Assays:
ALK-wt = target: T1, ALK-wt (Homo sapiens, UniProt Q9UM73); assay: Biochemical kinase assay, ALK-wt kinase domain; conditions: apparent inhibitory constant, Morrison equation; ATP 2 mM in substrate solution; read-out: ALK-wt Ki^app
T1 construct: purchased Carna 08-518
Procedure, shortened: (§1)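 Compound in DMSO added first, then substrate solution (ATP 2 mM; AQT0101 or AQT0104, 26 μM; pH 7.5 HEPES, 10 mM MgCl2), then kinase solution with enzyme at 0.5–3 nM depending on construct. Kinetic read every 2 min for 120 min at 30° C; Ki^app by Morrison regression.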

ALK L1196M/G1202R = target: T2, ALK L1196M/G1202R (Homo sapiens, UniProt Q9UM73, G1202R/L1196M); assay: Biochemical kinase assay, ALK L1196M/G1202R kinase domain; conditions: apparent inhibitory constant, Morrison equation; ATP 2 mM in substrate solution; read-out: ALK-L1196M-G1202R Ki^app
T2 construct: purchased SignalChem A19-12NG
T2 sequence (Q9UM73 1116-1392 L1196M/G1202R limits assumed): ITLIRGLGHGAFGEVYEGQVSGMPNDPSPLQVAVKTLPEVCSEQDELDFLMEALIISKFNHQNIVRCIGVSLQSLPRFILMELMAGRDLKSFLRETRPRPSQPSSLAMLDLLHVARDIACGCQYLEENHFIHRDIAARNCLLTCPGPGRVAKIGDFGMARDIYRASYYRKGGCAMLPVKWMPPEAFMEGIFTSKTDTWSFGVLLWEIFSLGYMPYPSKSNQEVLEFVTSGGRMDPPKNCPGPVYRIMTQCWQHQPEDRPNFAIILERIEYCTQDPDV
Procedure, shortened: as §1

ROS1-wt = target: T3, ROS1-wt (Homo sapiens, UniProt P08922); assay: Biochemical kinase assay, ROS1-wt kinase domain; conditions: apparent inhibitory constant, Morrison equation; ATP 2 mM in substrate solution; read-out: ROS1-wt Ki^app
T3 construct: purchased Carna 08-163
T3 sequence (P08922 1945-2222 limits assumed): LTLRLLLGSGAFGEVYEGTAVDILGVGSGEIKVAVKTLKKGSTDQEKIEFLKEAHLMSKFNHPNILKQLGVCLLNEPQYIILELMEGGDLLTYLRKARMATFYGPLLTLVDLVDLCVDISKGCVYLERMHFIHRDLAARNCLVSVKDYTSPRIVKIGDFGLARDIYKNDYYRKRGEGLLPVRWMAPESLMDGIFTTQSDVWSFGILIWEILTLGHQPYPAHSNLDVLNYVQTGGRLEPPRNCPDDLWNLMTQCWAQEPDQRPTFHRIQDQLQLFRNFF
Procedure, shortened: (§2)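 Kinetic read: 485 nm, 2-min intervals, 120 min, 30 °C. Substrate mix — ATP 2 mM, AQT0101 26 μM, HEPES 50 mM pH 7.5, MgCl2 10 mM. Output: Ki^app, Morrison equation.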

ROS1-G2032R = target: T4, ROS1-G2032R (Homo sapiens, UniProt P08922, G2032R); assay: Biochemical kinase assay, ROS1-G2032R kinase domain; conditions: apparent inhibitory constant, Morrison equation; ATP 2 mM in substrate solution; read-out: ROS1-G2032R Ki^app
T4 construct: purchased SignalChem R14-12BG
T4 sequence (P08922 1945-2222 G2032R limits assumed): as the sequence (P08922 1945-2222 limits assumed) above, with G88R counted along it
Procedure, shortened: as §2

TRKA-wt = target: T5, TRKA-wt (Homo sapiens, UniProt P04629); assay: Biochemical kinase assay, TRKA-wt kinase domain; conditions: apparent inhibitory constant, Morrison equation; ATP 2 mM in substrate solution; read-out: TRKA-wt Ki^app
T5 construct: or TRKA-wt (1 nM, BPS Bio, 40280) kinase domains in buffer; purchased BPS Bio 40280
T5 sequence (P04629 510-781 limits assumed): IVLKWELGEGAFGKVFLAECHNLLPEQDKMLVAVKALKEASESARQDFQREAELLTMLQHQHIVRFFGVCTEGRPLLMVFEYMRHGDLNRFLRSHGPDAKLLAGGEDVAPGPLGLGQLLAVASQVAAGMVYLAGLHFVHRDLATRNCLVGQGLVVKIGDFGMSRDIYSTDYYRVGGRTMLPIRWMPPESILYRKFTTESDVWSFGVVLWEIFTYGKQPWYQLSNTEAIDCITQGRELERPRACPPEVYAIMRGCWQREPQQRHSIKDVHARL
Procedure, shortened: as §1

[1] = target: T6, Ba/F3 cells CD74-ROS1 wild-type (wt) (Homo sapiens, UniProt P08922); assay: Ba/F3 cell proliferation assay, CD74-ROS1 wild-type; assay type: cell-based; conditions: 72 hours, CellTiter-Glo
T6 construct: fusion of the C-terminus of ROS1 with the N-terminus of various partner proteins; host or cells: Ba/F3 (RIKEN), retroviral pMSCV-puro; the other entry of the earlier key: CD74 (P04233, HLA class II histocompatibility antigen gamma chain)
T6 sequence (P08922 1883-2347 limits assumed): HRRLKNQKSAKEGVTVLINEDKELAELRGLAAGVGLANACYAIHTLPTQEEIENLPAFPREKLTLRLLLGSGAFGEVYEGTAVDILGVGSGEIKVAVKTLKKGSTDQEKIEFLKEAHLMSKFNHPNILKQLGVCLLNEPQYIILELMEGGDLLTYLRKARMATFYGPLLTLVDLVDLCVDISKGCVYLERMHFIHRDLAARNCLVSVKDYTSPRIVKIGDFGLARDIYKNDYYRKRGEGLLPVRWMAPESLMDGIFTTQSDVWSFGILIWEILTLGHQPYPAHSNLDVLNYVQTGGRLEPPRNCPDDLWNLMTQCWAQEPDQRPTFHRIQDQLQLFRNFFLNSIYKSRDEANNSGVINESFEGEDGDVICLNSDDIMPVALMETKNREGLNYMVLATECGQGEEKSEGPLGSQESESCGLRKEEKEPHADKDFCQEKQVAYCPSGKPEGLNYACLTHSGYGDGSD
Procedure, shortened: (§3)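 Cells were seeded 1 day, then exposed to a 3-fold compound dilution series for 72 hours. Viability was read by CellTiter-Glo luminescence; IC50 came from four-parameter logistic fitting of percent inhibition.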

[2] = target: T7, Ba/F3 cells CD74-ROS1 G2032R (Homo sapiens, UniProt P08922, G2032R); assay: Ba/F3 cell proliferation assay, CD74-ROS1 G2032R; assay type: cell-based; conditions: 72 hours, CellTiter-Glo
T7 construct: fusion of the C-terminus of ROS1 with the N-terminus of various partner proteins; host or cells: Ba/F3 (RIKEN), retroviral pMSCV-puro; the other entry of the earlier key: CD74 (P04233, HLA class II histocompatibility antigen gamma chain)
T7 sequence (P08922 1883-2347 G2032R limits assumed): as the sequence (P08922 1883-2347 limits assumed) above, with G150R counted along it
Procedure, shortened: as §3

[3] = target: T8, Ba/F3 cells EML4-ALK wt (variant 1) (Homo sapiens, UniProt Q9UM73); assay: Ba/F3 cell proliferation assay, EML4-ALK wt (variant 1); assay type: cell-based; conditions: 72 hours, CellTiter-Glo
T8 construct: echinoderm microtubule-associated protein-like 4 (EML4) gene and the ALK tyrosine kinase domain; host or cells: Ba/F3 (RIKEN), retroviral pMSCV-puro; the other entry of the earlier key: EML4 (Q9HC35, Echinoderm microtubule-associated protein-like 4)
T8 sequence (Q9UM73 with tags, fused parts or gaps): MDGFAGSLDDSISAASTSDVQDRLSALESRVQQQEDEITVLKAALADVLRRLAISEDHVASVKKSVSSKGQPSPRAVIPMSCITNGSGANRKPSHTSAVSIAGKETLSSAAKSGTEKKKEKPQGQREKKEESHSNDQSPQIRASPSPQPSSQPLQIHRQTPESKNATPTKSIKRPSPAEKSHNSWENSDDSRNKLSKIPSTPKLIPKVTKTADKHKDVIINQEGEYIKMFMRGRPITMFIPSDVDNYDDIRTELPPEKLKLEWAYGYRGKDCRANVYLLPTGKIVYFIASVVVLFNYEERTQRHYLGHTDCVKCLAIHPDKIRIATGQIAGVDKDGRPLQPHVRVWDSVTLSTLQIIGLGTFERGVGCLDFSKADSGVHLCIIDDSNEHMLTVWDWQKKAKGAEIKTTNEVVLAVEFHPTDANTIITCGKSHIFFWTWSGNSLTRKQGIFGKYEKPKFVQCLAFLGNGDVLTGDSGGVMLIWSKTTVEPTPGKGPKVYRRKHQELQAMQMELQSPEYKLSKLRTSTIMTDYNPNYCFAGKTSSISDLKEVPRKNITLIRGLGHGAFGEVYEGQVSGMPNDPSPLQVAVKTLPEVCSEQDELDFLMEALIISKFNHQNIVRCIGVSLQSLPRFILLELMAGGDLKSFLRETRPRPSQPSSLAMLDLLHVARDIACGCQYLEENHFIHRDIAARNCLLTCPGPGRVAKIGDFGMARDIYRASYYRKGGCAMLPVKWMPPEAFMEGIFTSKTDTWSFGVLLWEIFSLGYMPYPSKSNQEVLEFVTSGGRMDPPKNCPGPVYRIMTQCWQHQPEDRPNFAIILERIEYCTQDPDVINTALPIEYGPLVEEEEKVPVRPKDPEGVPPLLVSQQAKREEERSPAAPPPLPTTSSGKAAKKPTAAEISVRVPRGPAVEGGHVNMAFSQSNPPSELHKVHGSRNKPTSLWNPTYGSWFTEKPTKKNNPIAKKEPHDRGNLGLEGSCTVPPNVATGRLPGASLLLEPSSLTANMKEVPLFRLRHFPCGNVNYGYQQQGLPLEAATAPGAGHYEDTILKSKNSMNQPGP
Procedure, shortened: (§4)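 IL-3-independent Ba/F3 monoclones, puromycin-selected, transduced with fusion genes; 1,000 cells/well, 1 day rest, 3-fold compound series, 72 h. Read: CellTiter-Glo luminescence. IC50 from % inhibition vs concentration, 4-parameter logistic.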

[4] = target: T9, Ba/F3 cells EML4-ALK L1196M/G1202R (variant 1) (Homo sapiens, UniProt Q9UM73, G1202R/L1196M); assay: Ba/F3 cell proliferation assay, EML4-ALK L1196M/G1202R (variant 1); assay type: cell-based; conditions: 72 hours, CellTiter-Glo
T9 construct: echinoderm microtubule-associated protein-like 4 (EML4) gene and the ALK tyrosine kinase domain; host or cells: Ba/F3 (RIKEN), retroviral pMSCV-puro; the other entry of the earlier key: EML4 (Q9HC35, Echinoderm microtubule-associated protein-like 4)
T9 sequence (Q9UM73 with tags, fused parts or gaps L1196M/G1202R): as the sequence (Q9UM73 with tags, fused parts or gaps) above, with L635M, G641R counted along it
Procedure, shortened: as §4

Ba/F3 cells TPM3-TRKA = target: T10, Ba/F3 cells TPM3-TRKA (Homo sapiens, UniProt P04629); assay: Ba/F3 cell proliferation assay, TPM3-TRKA; assay type: cell-based; conditions: 72 hours, CellTiter-Glo, read-out: TPM3-NTRK1-wt IC50
T10 construct: host or cells: Ba/F3 (RIKEN), retroviral pMSCV-puro; the other entry of the earlier key: TPM3 (P06753, Tropomyosin alpha-3 chain)
T10 sequence (P04629 510-796 limits assumed): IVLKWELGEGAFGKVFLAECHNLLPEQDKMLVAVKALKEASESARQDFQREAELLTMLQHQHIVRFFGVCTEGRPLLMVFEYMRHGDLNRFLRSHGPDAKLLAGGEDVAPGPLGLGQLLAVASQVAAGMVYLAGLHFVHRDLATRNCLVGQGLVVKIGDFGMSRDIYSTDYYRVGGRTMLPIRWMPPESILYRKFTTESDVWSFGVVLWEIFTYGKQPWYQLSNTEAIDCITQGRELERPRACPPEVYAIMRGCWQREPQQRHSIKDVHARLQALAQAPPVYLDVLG
Procedure, shortened: as §4

[5] = system: TPM3-NTRK1-wt IC50 / primary target IC50 (e.g. CD74-ROS1-wt); assay: TRKA selectivity in Ba/F3 cells (TRKA potency divided by primary target potency); assay type: cell-based; conditions: for TPM3-NTRK1-wt/CD74-ROS1-G2032R selectivity ratio: TRKA potency / CD74-ROS1-G2032R potency; for TPM3-NTRK1-wt/CD74-ROS1-wt selectivity ratio: TRKA potency / CD74-ROS1-wt potency; for TPM3-NTRK1-wt/EML4-ALK-L1196M-G1202R selectivity ratio: TRKA potency / EML4-ALK-L1196M-G1202R potency; for TPM3-NTRK1-wt/EML4-ALK-wt selectivity ratio: TRKA potency / EML4-ALK-wt potency
Method: TRKA selectivity was calculated by dividing a compound's TRKA potency by its primary target potency (e.g. TPM3-NTRK1-wt IC50/CD74-ROS1-wt IC50). Compound selectivity can be interpreted by binning ratio values: bin A for very high selectivity, ratio >30-fold; bin B for high selectivity, ratio >10-fold; bin C for moderate selectivity, ratio ≥1; and bin D for low selectivity, ratio <1. […] (nd=not determined).

T1 sequence (Q9UM73 1116-1392 limits assumed): as the sequence (Q9UM73 1116-1392 L1196M/G1202R limits assumed) above, with M81L, R87G counted along it

Row | Ki (ALK-wt) [nM] | Ki (ALK L1196M/G1202R) [nM] | Ki (ROS1-wt) [nM] | Ki (ROS1-G2032R) [nM] | Ki (TRKA-wt) [nM] | IC50 [1] [nM] | IC50 [2] [nM] | IC50 [3] [nM] | IC50 [4] [nM] | IC50 (Ba/F3 cells TPM3-TRKA) [nM] | Compound | TPM3-NTRK1-wt/CD74-ROS1-G2032R selectivity ratio [5] | TPM3-NTRK1-wt/CD74-ROS1-wt selectivity ratio [5] | TPM3-NTRK1-wt/EML4-ALK-L1196M-G1202R selectivity ratio [5] | TPM3-NTRK1-wt/EML4-ALK-wt selectivity ratio [5]
1 | < 50 | < 50 | < 50 | < 50 | > 500 | 0.1 to 50 | 0.1 to 50 | 0.1 to 50 | 50 to 500 | 50 to 500 | C[C@H]1Oc2cc(cnc2N)-c2c(cnn2C2COC2)Cc2nn(C)nc2-c2ccc(F)cc21 [Example 83, (19R)-16-fluoro-10,19-dimethyl-3-(oxetan-3-yl)-20-oxa-3,4,9,10,11,23-hexaazapentacyclo[19.3.1.0^2,^6.0^8,^12.0^13,^18]pentacosa-1(24),2(6),4,8,11,13,15,17,21(25),22-decaen-22-amine] | A (bin A for very high selectivity, ratio >30-fold) | A (bin A for very high selectivity, ratio >30-fold) | C (bin C for moderate selectivity, ratio ≥1) | A (bin A for very high selectivity, ratio >30-fold)
2 | < 50 | 50 to 500 | < 50 | 50 to 500 | > 500 | 0.1 to 50 | 0.1 to 50 | 0.1 to 50 | 50 to 500 | > 500 | C[C@H]1Oc2cc(cnc2N)-c2c(C#N)ncn2Cc2nccnc2-c2ccc(F)cc21 [Example 46, (20R)-23-amino-17-fluoro-20-methyl-21-oxa-4,6,9,12,24-pentaazapentacyclo[20.3.1.0^2,^6.0^8,^13.0^14,^19]hexacosa-1(25),2,4,8(13),9,11,14,16,18,22(26),23-undecaene-3-carbonitrile] | A (bin A for very high selectivity, ratio >30-fold) | A (bin A for very high selectivity, ratio >30-fold) | A (bin A for very high selectivity, ratio >30-fold) | A (bin A for very high selectivity, ratio >30-fold)
3 | < 50 | < 50 | < 50 | < 50 | 50 to 500 | 0.1 to 50 | 0.1 to 50 | 0.1 to 50 | 0.1 to 50 | 50 to 500 | Cc1nc2n(n1)Cc1cnn(CC3CC3)c1-c1cnc(N)c(c1)O[C@H](C)c1cc(F)ccc1-2 [Example 75, (19R)-3-(cyclopropylmethyl)-16-fluoro-10,19-dimethyl-20-oxa-3,4,8,9,11,23-hexaazapentacyclo[19.3.10^2,^6.0^8,^12.0^13,^18]pentacosa-1(24),2(6),4,9,11,13,15,17,21(25),22-decaen-22-amine] | A (bin A for very high selectivity, ratio >30-fold) | A (bin A for very high selectivity, ratio >30-fold) | B (bin B for high selectivity, ratio >10-fold) | A (bin A for very high selectivity, ratio >30-fold)
4 | < 50 | < 50 | < 50 | < 50 | > 500 | 0.1 to 50 | 0.1 to 50 | 0.1 to 50 | 0.1 to 50 | > 500 | C[C@H]1Oc2cc(cnc2N)-c2c(cnn2C2CCC2)Cc2ncnn2-c2ccc(F)cc21 [Example 41, (19R)-3-cyclobutyl-16-fluoro-19-methyl-20-oxa-3,4,9,11,12,23-hexaazapentacyclo[19.3.1.0^2,^6.0^8,^12.0^13,^18]pentacosa-1(24),2(6),4,8,10,13,15,17,21(25),22-decaen-22-amine] | A (bin A for very high selectivity, ratio >30-fold) | A (bin A for very high selectivity, ratio >30-fold) | B (bin B for high selectivity, ratio >10-fold) | A (bin A for very high selectivity, ratio >30-fold)
5 | < 50 | < 50 | < 50 | < 50 | > 500 | 0.1 to 50 | 0.1 to 50 | 0.1 to 50 | 0.1 to 50 | > 500 | C[C@H]1Oc2cc(cnc2N)-c2c(CC3CC3)nn(C)c2Cc2nn(C)nc2-c2ccc(F)cc21 [Example 100, (19R)-3-(cyclopropylmethyl)-16-fluoro-5,10.19-trimethyl-20-oxa-4,5,9,10,11 23-hexaazapentacyclo[19.3.1.0^2,^6.0^8,^12.0^13,^18]pentacosa-1(24),2(6) 3,8,11,13,15,17,21(25),22-decaen-22-amine] | A (bin A for very high selectivity, ratio >30-fold) | A (bin A for very high selectivity, ratio >30-fold) | A (bin A for very high selectivity, ratio >30-fold) | A (bin A for very high selectivity, ratio >30-fold)
6 | < 50 | 50 to 500 | < 50 | 50 to 500 | > 500 | 0.1 to 50 | 50 to 500 | 50 to 500 | > 500 | > 500 | C[C@H]1Oc2cc(cnc2N)-c2c(C#N)noc2Cn2nccc2-c2ccc(F)cc21 [Example 20, (19R)-22-amino-16-fluoro-19-methyl-5,20-dioxa-4,8,9,23-tetraazapentacyclo[19.3.1.0^2,^6.0^8,^12.0^13,^18]pentacosa-1(24),2(6),3,9,11,13(18), 4,16,21 (25),22-decaene-3-carbonitrile] | A (bin A for very high selectivity, ratio >30-fold) | A (bin A for very high selectivity, ratio >30-fold) | C (bin C for moderate selectivity, ratio ≥1) | A (bin A for very high selectivity, ratio >30-fold)
